Assays:
Aorta [1] = experiment: Vasorelaxant activity in Sprague-Dawley rat aortic rings assessed as reduction in phenylephrine-induced contractions by organ bath assay; format: functional, tissue-based
Aorta [2] = experiment: Vasorelaxant activity in Sprague-Dawley rat aortic rings assessed as reduction in phenylephrine-induced contractions by measuring maximum efficacy by organ bath assay relative to control; format: functional

| Compound | EC50 (Aorta [1]) | Emax (Aorta [2]) |
| --- | --- | --- |
| CCCC(Cc1ccccc1)NCCc1ccc(F)cc1 (centres undefined) | 3.83 µM | 120% |
| Fc1ccc(CCNC(CCc2ccccc2)Cc2ccc(Cl)cc2)cc1 (centres undefined) | 0.65 µM | 92.2% |
| CCCC(Cc1ccccc1)NCCc1ccc([N+](=O)[O-])cc1 (centres undefined) | 1.73 µM | 119% |
| CCCC(CC1CCCCC1)NCCc1ccccc1 (centres undefined) | 1.84 µM | 114% |
| CCCC(CC1CC1)NCCc1ccccc1 (centres undefined) | 1.51 µM | 116% |
| CCCC(Cc1ccccc1)NCCc1ccc(O)cc1 (centres undefined) | 0.049 µM | 111% |
| CCCC(Cc1ccccc1)NCCN1CCCCC1 (centres undefined) | 0.13 µM | 110% |
| CCCC(Cc1ccccc1)NC1Cc2ccccc2C1 (centres undefined) | 0.35 µM | 114% |
| CCCC(Cc1ccc2ccccc2c1)NCCc1ccccc1 (centres undefined) | 1.6 µM | 115% |
| COc1ccc(CCNC(Cc2ccccc2)Cc2ccccc2)cc1OC | 1.86 µM | 115% |
| CCCC(Cc1ccccc1)NCCc1c[nH]c2ccccc12 (centres undefined) | 0.44 µM | 114% |
| CCCC(Cc1ccccc1)NCCc1ccccn1 (centres undefined) | 1.13 µM | 114% |
| CCC(Cc1ccccc1)NCCc1ccccc1 (centres undefined) | 1.12 µM | 120% |
| CCC(CCc1ccc(C#N)cc1)NCCc1ccccc1 (centres undefined) | 1.96 µM | 125% |
| CCCC(CC1CCCCC1)NCCC1CCCCC1 (centres undefined) | 0.32 µM | 83.6% |
| CCCC(Cc1ccccc1)NCCc1ccc(OC)cc1 (centres undefined) | 1.28 µM | 114% |
| CCCNC(CCc1ccccc1)Cc1ccccc1 (centres undefined) | 3.83 µM | 121% |
| CCCC(Cc1ccc2c(c1)OCO2)NCCc1ccccc1 (centres undefined) | 1.06 µM | 113% |
| CCC(CCc1ccco1)NCCN1CCCCC1 (centres undefined) | 0.42 µM | 97.8% |

| Compound | EC50 (Aorta [1]) | Emax (Aorta [2]) |
| --- | --- | --- |
| COc1ccc(CCNC(C)Cc2ccc(OC)c(OC)c2)cc1OC (centres undefined) | 2.89 µM | 104% |
| CCCC(CC1CCCCC1)NCCN1CCCCC1 (centres undefined) | 0.22 µM | 88.4% |
| CCCC(Cc1ccccc1)NCCN1CCOCC1 (centres undefined) | 2.74 µM | 89.8% |
| CCCC(Cc1ccccc1)NCCC1=CCCCC1 (centres undefined) | 2.41 µM | 117% |
| CCCC(Cc1ccc(C)cc1)NCCc1ccc(F)cc1 (centres undefined) | 1.23 µM | 118% |
| CCCC(Cc1cccs1)NCCc1ccccc1 (centres undefined) | 0.41 µM | 110% |
| CCCC(Cc1ccccc1)NCCc1ccccc1 (centres undefined) | 3.06 µM | 113% |
| CCCC(Cc1ccccc1)NCCCCc1ccccc1 (centres undefined) | 2.74 µM | 127% |
| CCCC(Cc1csc2ccccc12)NCCc1ccccc1 (centres undefined) | 0.37 µM | 112% |
| CCCC(Cc1ccccc1)NCCc1c[nH]cn1 (centres undefined) | 1.37 µM | 122% |
| CCC(CCc1cccs1)NCCc1ccccc1 (centres undefined) | 0.19 µM | 120% |
| C[N+](C)(CCc1ccccc1)C(CCc1ccccc1)Cc1ccccc1 (centres undefined) | 1.97 µM | 136% |
| c1ccc(CCNC2CCc3ccccc3C2)cc1 (centres undefined) | 0.5 µM | 119% |
| CCC(CCc1ccco1)NCCC1CCCCC1 (centres undefined) | 2.12 µM | 106% |
| c1ccc(CCC(Cc2ccccc2)N(CCc2ccccc2)CC2CC2)cc1 (centres undefined) | 0.14 µM | 75.4% |
| CCC(CCc1ccco1)NCCc1ccccc1 (centres undefined) | 0.18 µM | 122% |
| CCCC(CCCCc1ccccc1)NCCc1ccccc1 (centres undefined) | 2.02 µM | 121% |
| c1ccc(CCC(Cc2ccccc2)N(CCc2ccccc2)CCc2ccccc2)cc1 (centres undefined) | 1.39 µM | 68.9% |
| CCN(CCc1ccccc1)C(CCc1ccccc1)Cc1ccccc1 (centres undefined) | 1.21 µM | 85% |

| Compound | EC50 (Aorta [1]) | Emax (Aorta [2]) |
| --- | --- | --- |
| CCCC(Cc1ccc(Cl)cc1)NCCc1ccccc1 (centres undefined) | 1.95 µM | 114% |
| CCCCCCCC(CCC)NCCc1ccccc1 (centres undefined) | 1.05 µM | 89.7% |
| CCCC(CC1CCCCC1)NCCC1=CCCCC1 (centres undefined) | 1 µM | 84.7% |
| CCCC(Cc1ccccc1)NC1CCCC1 (centres undefined) | 3.09 µM | 116% |
| CCCC(Cc1ccc(C)cc1)NCCc1ccccc1 (centres undefined) | 2.64 µM | 120% |
| CCC(CCc1ccccc1)NCCc1ccccc1 (centres undefined) | 1.24 µM | 11.5% |
| CCCC(Cc1ccccc1)NC1CC1 (centres undefined) | 2.25 µM | 114% |
| CCCC(Cc1ccc(Cl)cc1)NCCc1ccc(F)cc1 (centres undefined) | 1.09 µM | 99.1% |
| c1ccc2c(c1)CCC(NC1Cc3ccccc3C1)C2 (centres undefined) | 1.32 µM | 122% |
| CCCC(Cc1ccccc1)NCCN1CCNCC1 (centres undefined) | 1.04 µM | 107% |
| c1ccc(CCNC2Cc3ccccc3C2)cc1 | 0.2 µM | 113% |
| CCC(CCCCc1ccccc1)NCCc1ccccc1 (centres undefined) | 3.36 µM | 125% |
| CCCC(Cc1ccccc1)NC1CC2CCC1C2 (centres undefined) | 0.48 µM | 106% |
| COc1ccc(CCC(Cc2ccc(OC)c(OC)c2)NCCc2ccc(OC)c(OC)c2)cc1 (centres undefined) | 2.99 µM | 122% |
| CN(CCc1ccccc1)C(CCc1ccccc1)Cc1ccccc1 (centres undefined) | 0.04 µM | 93.5% |
| c1ccc(CCNC(CCc2ccccc2)Cc2ccccc2)cc1 (centres undefined) | 2.3 µM | 116% |
| CC(=O)N(CCc1ccccc1)C(CCc1ccccc1)Cc1ccccc1 (centres undefined) | 20.3 µM | 82.9% |
| CCCC(Cc1ccccc1)NCCc1cccs1 (centres undefined) | 3.5 µM | 134% |
| CCCC(Cc1ccccc1)NCCC#N (centres undefined) | 1.43 µM | 89.5% |

Source: ChEMBL document CHEMBL5385933, “Preparation and Preliminary Structure-Activity Relationship Studies of Schwarzinicine A Analogs as Vasorelaxant Agents” (J Nat Prod, 2024)
